# Where two headings read alike, the source gives them in different places. Marks after values point to notes of the source that are not given here.
# Experiments:
# [1] = system: MES-induced seizures; details: Mice IP; from Antiepileptic Drugs, 5th ed., Levy et al., 2002; cited from earlier work
# [2] = system: Metrazol-induced clonic seizures; details: Rat PO; from Antiepileptic Drugs, 5th ed., Levy et al., 2002; cited from earlier work
# [3] = Toxicity (TOX), rotorod procedure, mice; assay type: in vivo; details: mouse, in vivo; IP route in mice (footnote of Table 10); read-out: TD50
# Experimental: (§1) The benzodiazepine derivative compounds selective for GABAa receptor subunits were tested for the ability to suppress seizures in several standard rat and mouse models of epilepsy. […] The standard models incorporated into anticonvulsant screening include the maximal electroshock test (MES), the subcutaneous Metrazol test (scMet), and evaluations of toxicity (TOX). The data for each condition is presented as a ratio of either the number of animals protected or toxic (loss of locomotor activity) over the number of animals tested at a given time point and dose.
# (§2) To assess a compound's undesirable side effects (toxicity), animals are monitored for overt signs of impaired neurological or muscular function. […] When a mouse is placed on a rod that rotates at a speed of 6 rpm, the animal can maintain its equilibrium for long periods of time. The animal is considered toxic if it falls off this rotating rod three times during a 1-min period. In rats, minimal motor deficit is indicated by ataxia, which is manifested by an abnormal, uncoordinated gait. Rats used for evaluating toxicity are examined before the test drug is administered, since individual animals may have peculiarities in gait, equilibrium, placing response, etc., which might be attributed erroneously to the test substance.
# [4] = system: Metrazol-induced clonic seizures; details: Mice IP; from Antiepileptic Drugs, 5th ed., Levy et al., 2002; cited from earlier work
# [5] = system: MES-induced seizures; details: Rat PO; from Antiepileptic Drugs, 5th ed., Levy et al., 2002; cited from earlier work
# [6] = system: minimal motor deficit (ataxia, abnormal gait); details: Rat PO; from Antiepileptic Drugs, 5th ed., Levy et al., 2002; cited from earlier work
# [7] = system: 6 Hz psychomotor seizure; assay: Minimal clonic seizure (6 Hz) test; assay type: in vivo; details: Mus musculus, ip, Mice IP
# From the text: Like the maximal electroshock (MES) test, the minimal clonic seizure (6 Hz) test is used to assess a compound's efficacy against electrically-induced seizures but uses a lower frequency (6 Hz) and longer duration of stimulation (3 s). Test compounds are pre-administered to mice via ip injection. […] Untreated mice will display seizures characterized by a minimal clonic phase followed by stereotyped, automatistic behaviors described originally as being similar to the aura of human subjects with partial seizures. Animals not displaying this behavior are considered protected (Table 10).
# [8] = molecular target: GABAA/α2 (Homo sapiens, UniProt P18507+P47869); details: Huang et al., J. Med. Chem. 2000, 43, 71-95; cited from earlier work
# [9] = molecular target: GABAA/α1 receptors (Homo sapiens, UniProt P14867+P18507); details: Huang et al., J. Med. Chem. 2000, 43, 71-95; cited from earlier work
# [10] = molecular target: GABAA/α5 receptors (Homo sapiens, UniProt P18507+P31644); details: Huang et al., J. Med. Chem. 2000, 43, 71-95; cited from earlier work
# [11] = molecular target: T1, GABAA/α6 (α6β3γ2 GABAA receptors) (Homo sapiens, UniProt P18507+Q16445); assay: Competitive binding assay, [3H]flunitrazepam
# T1 construct: expressed in transfected cells
# Experimental: (§3) The GABAA subunit selectivity of several compounds prepared as described above were determined using competitive binding assays. […] Membranes were harvested with a Brandel cell harvester followed by three ice-cold washes onto polyethyleneimine-pretreated (0.3%) Whatman GF/C filters. Filters were dried overnight and then soaked in Ecoscint, a liquid scintillation cocktail (National Diagnostics; Atlanta, Ga.). Bound radioactivity was quantified by liquid scintillation counting. Membrane protein concentrations were determined using an assay kit from Bio-Rad (Hercules, Calif.) with bovine serum albumin as the standard.
# [12] = molecular target: T2, GABAA/α4 (α4β3γ2 GABAA receptors) (Homo sapiens, UniProt P18507+P48169); assay: Competitive binding assay, [3H]flunitrazepam
# T2 construct: expressed in transfected cells
# Experimental: as §3
# [13] = molecular target: T3, GABAA/α1 (α1β3γ2 GABAA receptors) (Homo sapiens, UniProt P14867+P18507); assay: Competitive binding assay, [3H]flunitrazepam; details: αxβ3γ2, [3H]flunitrazepam competition; read-out: Binding Affinity at GABAA/α1
# T3 construct: expressed in transfected cells
# Experimental: as §3
# [14] = molecular target: T4, GABAA/α5 (α5β3γ2 GABAA receptors) (Homo sapiens, UniProt P18507+P31644); assay: Competitive binding assay, [3H]flunitrazepam; details: Binding Affinity at GABAA/α5, αxβ3γ2, [3H]flunitrazepam competition
# T4 construct: expressed in transfected cells
# Experimental: as §3
# [15] = molecular target: T5, GABAA/α2 (α2β3γ2 GABAA receptors) (Homo sapiens, UniProt P18507+P47869); assay: Competitive binding assay, [3H]flunitrazepam; details: αxβ3γ2, [3H]flunitrazepam competition; read-out: Binding Affinity at GABAA/α2
# T5 construct: expressed in transfected cells
# Experimental: as §3
# [16] = molecular target: T6, GABAA/α3 (α3β3γ2 GABAA receptors) (Homo sapiens, UniProt P18507+P34903); assay: Competitive binding assay, [3H]flunitrazepam; details: Binding Affinity at GABAA/α3, αxβ3γ2, [3H]flunitrazepam competition
# T6 construct: expressed in transfected cells
# Experimental: as §3
# [17] = molecular target: GABAA/α3 (Homo sapiens, UniProt P18507+P34903); details: Huang et al., J. Med. Chem. 2000, 43, 71-95; cited from earlier work
# [18] = system: MES-induced seizures; assay: Maximal electroshock test (MES), rats; assay type: in vivo; details: Rat PO; for MES, animals protected/tested: 30 mg/kg
# Experimental: as §1
# (§4) The MES is a model for generalized tonic-clonic seizures and provides an indication of a compound's ability to prevent seizure spread when all neuronal circuits in the brain are maximally active. These seizures are highly reproducible and are electrophysiologically consistent with human seizures. For all tests based on MES convulsions, 60 Hz of alternating current (50 mA in mice, 150 in rats) is delivered for by corneal electrodes which have been primed with an electrolyte solution containing an anesthetic agent (0.5% tetracaine HCL). For Test 1, mice are tested at various intervals following doses of 30, 100 and 300 mg/kg of test compound given by ip injection of a volume of 0.01 mL/g. In Test 2, rats are tested after a dose of 30 mg/kg (po) in a volume of 0.04 mL/g. Test 8 uses varying doses administered via i.p. injection, again in a volume of 0.04 ml/g. […] In Antiepileptic Drugs, Levy, R. H. M., Meldrum, B. S., Eds.; Raven Press: New York, pp 99-110, 1995b.).
# [19] = Toxicity (TOX), minimal motor deficit, rats; assay type: in vivo; details: in vivo; Rat IP
# Experimental: as §1, §2
# [20] = system: minimal motor deficit (ataxia, abnormal gait); assay: Toxicity (TOX), minimal motor deficit, rats; assay type: in vivo; details: Rat PO; for Tox, animals toxic/tested: 50 mg/kg
# Experimental: as §1, §2
# [21] = system: kindled motor seizure; assay: Hippocampus kindling screen; assay type: in vivo; details: Rats IP, 3 mg/kg after 4 h
# From the text: The hippocampus kindling screen is a useful adjunct to the traditional MES and scMet tests for identification of a substance potential utility for treating complex partial seizures. […] No toxic effects were observed as indicated by the lack of motor impairment on the rats tested.
# [22] = system: minimal muscular or neurological impairment; assay: Toxicity (TOX), rotorod procedure, mice; assay type: in vivo
# Experimental: as §1, §2
# [23] = system: Metrazol-induced clonic seizures; assay: Subcutaneous Metrazol test (scMet), mice; assay type: in vivo
# Experimental: as §1
# (§5) Subcutaneous injection of the convulsant Metrazol produces clonic seizures in laboratory animals. […] Animals are pretreated with various doses of the test compound (in a similar manner to the MES test, although a dose of 50 mg/kg (po) is the standard for Test 2 scMet). At the previously determined TPE of the test compound, the dose of Metrazol which will induce convulsions in 97% of animals (CD97: 85 mg/kg mice) is injected into a loose fold of skin in the midline of the neck. […] An episode of clonic spasms, approximately 3-5 seconds, of the fore and/or hindlimbs, jaws, or vibrissae is taken as the endpoint.
# [24] = system: Metrazol-induced clonic seizures; assay: Subcutaneous Metrazol test (scMet), rats; assay type: in vivo
# Experimental: as §1, §5
# [25] = system: MES-induced seizures; assay: Maximal electroshock test (MES), mice; assay type: in vivo
# Experimental: as §1, §4
# [26] = 32 mA, read-out: ED50 32 mA (6 Hz test)
# [27] = Mice, 50 mg/kg PO (Mice IP), 0.5 hr
# [28] = Mice, 50 mg/kg PO (Mice IP), 4.0 hr
compound,measurement,setting,value
O=C1NC(=O)C(c2ccccc2)(c2ccccc2)N1 [Phenytoin],ED50 MES,[1],5.64 mg/kg
same,ED50 scMet,[2],>500 mg/kg
same,TD50,[3],51 mg/kg
same,ED50 scMet,[4],>50 mg/kg
same,ED50 MES,[5],28.1 mg/kg
same,TD50 TOX,[6],>1000 mg/kg
same,ED50,[7]; [26],> 40 mg/kg
"C#Cc1ccc2c(c1)C(c1ccccc1)=NCC(=O)N2C [QH-II-066, 1-Methyl-7-acetyleno-5-phenyl-1,3-dihydro-benzo[e]-1,4-diazepin-2-one]",Ki,[8],< 50 nM
same,Ki,[9],> 70 nM
same,Ki,[10],< 10 nM
same,Ki,[11],> 1000 nM
same,Ki,[12],> 1000 nM
same,Ki,[13],76.3 nM
same,Ki,[14],6.8 nM
same,Ki,[15],42.1 nM
same,Ki,[16],47.4 nM
same,Ki,[17],< 50 nM
"C#Cc1ccc2c(c1)C(c1ccccc1Cl)=NCc1nnc(C)n1-2 [XLi-JY-DMH (23), 8-Acetyleno-5-(2′-chlorophenyl)-1-methyl-4H-s-triazolo-[4,3-a]-1,4-benzodiazepine]",ED50,[18],> 150 mg/kg
same,"MES, animals protected/tested",[18]; 0.5 h,0/4
same,"MES, animals protected/tested",[18]; 1.0 h,0/4
same,"MES, animals protected/tested",[18]; 2.0 h,0/4
same,"MES, animals protected/tested",[18]; 4.0 h,0/4
same,"MES, animals protected/tested",[18]; […],0/4
same,TD50,[19],2.08 mg/kg
same,"Tox, animals toxic/tested",[20]; 0.5 h,0/4
same,"Tox, animals toxic/tested",[20]; 1.0 h,0/4
same,"Tox, animals toxic/tested",[20]; 2.0 h,0/4
same,"Tox, animals toxic/tested",[20]; 4.0 h,0/4
same,"Tox, animals toxic/tested",[20]; […],0/4
same,TD50 TOX,[20]; abnormal gait,166.25 mg/kg
same,"Tox, animals toxic/tested",[21],0/2^c
same,"Afterdischarge Duration, Drug (Low-High)",[21]; pre-drug 29-41,29- s
same,"TOX (Rotorod Test), animals toxic/tested","[22]; Mice IP, 100 mg/kg, 0.5 hr",6/8
same,"TOX (Rotorod Test), animals toxic/tested","[22]; Mice IP, 100 mg/kg, 4.0 hr",2/4
same,TD50 TOX,"[22]; Mice IP, rotorod",2.875 mg/kg
same,"TOX (Rotorod Test), animals toxic/tested",[22]; [27],0/4
same,"TOX (Rotorod Test), animals toxic/tested",[22]; [28],0/4
same,mice protected against scMet induced seizures,"[23]; Mice IP, 100 mg/kg, 0.5 hr",100%
same,"scMet, animals protected/tested","[23]; Mice IP, 100 mg/kg, 0.5 hr",1/1
same,"scMet, animals protected/tested","[23]; Mice IP, 100 mg/kg, 4.0 hr",1/1
same,"scMet, animals protected/tested",[23]; [27],3/4
same,"scMet, animals protected/tested",[23]; [28],2/4
same,ED50,"[23]; Mus musculus, Mice IP",1.03 mg/kg
same,ED50,[24]; Rat IP,4.2 mg/kg
same,ED50,[24]; Rat PO,1.58 mg/kg
same,"scMet, animals protected/tested","[24]; Rat PO, 15 mg/kg, 0.5 h",3/4^c
same,"scMet, animals protected/tested","[24]; Rat PO, 15 mg/kg, 1.0 h",2/4^c
same,"scMet, animals protected/tested","[24]; Rat PO, 15 mg/kg, 2.0 h",4/4^c
same,"scMet, animals protected/tested","[24]; Rat PO, 15 mg/kg, 4.0 h",2/4^c
same,"scMet, animals protected/tested","[24]; Rat PO, 15 mg/kg, […]",3/4^c
same,"scMet, animals protected/tested","[24]; Rat PO, 50 mg/kg, 0.5 h",4/4
same,"scMet, animals protected/tested","[24]; Rat PO, 50 mg/kg, 1.0 h",4/4
same,"scMet, animals protected/tested","[24]; Rat PO, 50 mg/kg, 2.0 h",4/4
same,"scMet, animals protected/tested","[24]; Rat PO, 50 mg/kg, 4.0 h",3/4
same,"scMet, animals protected/tested","[24]; Rat PO, 50 mg/kg, […]",4/4
same,"MES, animals protected/tested","[25]; Mice IP, 100 mg/kg, 0.5 hr",3/3
same,"MES, animals protected/tested","[25]; Mice IP, 100 mg/kg, 4.0 hr",3/3
same,"MES, animals protected/tested",[25]; [27],0/4
same,"MES, animals protected/tested",[25]; [28],0/4
same,ED50,"[25]; Mus musculus, Mice IP",> 6 mg/kg
same,ED50,[7]; [26],0.17 mg/kg
same,ED50,"[7]; 44 mA, read-out: ED50 44 mA (6 Hz test)",0.4 mg/kg
